In patent US20240335431A1, “1-H-PYRROLO[2,3-c]PYRIDINE COMPOUNDS” (Acerta Pharma B.V., priority 2023, published 2024):
Read-outs that look alike come from different tables or passages of the source.

Experiments:
OCI-AML3 cells = experiment: Proliferation assay, OCI-AML3 (CellTiter-Glo, 7 days); format: cell-based, human
In short: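 Cells were seeded at line-specific low densities for linear growth, exposed to 3.16-fold serial compound dilutions at 0.1% DMSO, and incubated 7 days at 37 °C, 5% CO2. Viability was read by CellTiter-Glo 2.0 luminescence; IC50 came from one-site fits of % inhibition, normalized between DMSO-treated cells (100%) and a day-0 plate (0%).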

[1] = Human hepatocyte intrinsic clearance assay; format: in vitro ADME; conditions: human hepatocytes
In short: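 Pooled 10-donor cryopreserved human hepatocytes in suspension (0.25×10^6 cells in 0.25 mL) incubated with test compound at […], 37° C. Samples taken 0.5–120 min and quenched in acetonitrile, parent remaining measured by LC-MS/MS. CLint ([…]) derived from slope of ln % remaining vs time.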

muscarinic M2 receptor = muscarinic M2 receptor (Homo sapiens (Human), UniProt P08172); experiment: Muscarinic M2 receptor binding assay (assay 1); conditions: [3H]AF-DX 384 2 nM, Cheng Prusoff
In short: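 Membrane homogenates (60 μg protein) were incubated with 2 nM [3H]AF-DX 384 for 60 min at 22° C in Tris-HCl pH 7.4 with NaCl, KCl, MgCl2 and EDTA; 1 μM atropine defined nonspecific binding. Filtration and scintillation counting gave percent inhibition of specific binding, with Ki by Cheng-Prusoff.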

muscarinic M2 receptor, sequence (P08172 whole entry): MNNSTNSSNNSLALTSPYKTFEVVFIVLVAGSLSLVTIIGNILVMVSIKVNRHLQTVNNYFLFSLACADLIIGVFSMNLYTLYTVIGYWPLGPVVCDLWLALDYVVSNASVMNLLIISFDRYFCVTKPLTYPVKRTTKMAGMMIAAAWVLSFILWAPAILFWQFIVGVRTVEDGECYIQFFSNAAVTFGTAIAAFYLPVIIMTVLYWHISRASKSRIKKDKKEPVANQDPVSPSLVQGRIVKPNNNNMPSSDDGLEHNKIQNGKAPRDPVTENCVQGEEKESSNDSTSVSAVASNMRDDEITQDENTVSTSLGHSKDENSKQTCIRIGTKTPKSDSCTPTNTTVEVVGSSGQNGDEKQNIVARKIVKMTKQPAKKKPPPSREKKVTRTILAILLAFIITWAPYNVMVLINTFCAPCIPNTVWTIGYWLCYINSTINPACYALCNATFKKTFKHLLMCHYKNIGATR

| IC50 (OCI-AML3 cells; Homo sapiens, OCI-AML-3, 168 h) [nM] | HH CLint [1] [μl/min/1E6] | Ki (muscarinic M2 receptor) [nM] | Compound | IC50 (OCI-AML3 cells) [nM] |
| --- | --- | --- | --- | --- |
| 63 | <1.0 | 34300 | CCN(C(=O)c1cc(F)ccc1-n1c(C)c(C(=O)C2CCN(C(=O)[C@@H]3CCC(C)(C)N3)CC2)c2ccncc21)C(C)C (single isomer, unassigned) [Example 50-2] | – |
| 115 | 3.2 | 14400 | CC(C)N(C(=O)c1cc(F)ccc1-n1cc(C(=O)C2CN(C(=O)[C@H]3N[C@H]4C[C@@H]3[C@@H](F)C4)C2)c2ccncc21)C(C)C [Example 7, 5-Fluoro-2-(3-(1-((1S,3S,4S,5S)-5-fluoro-2-azabicyclo[2.2.1]heptane-3-carbonyl)azetidine-3-carbonyl)-1H-pyrrolo[2,3-c]pyridin-1-yl)-N,N-diisopropylbenzamide] | – |
| 76 | 2.5 | 500 | CC(C)c1ncsc1-c1cc(F)ccc1-n1cc(C(=O)C2CCN(C(=O)[C@H]3N[C@@H]4CC[C@H]3C4)CC2)c2ccncc21.O=CO [Example 42, (1-((1R,3S,4S)-2-Azabicyclo[2.2.1]heptane-3-carbonyl)piperidin-4-yl)(1-(4-fluoro-2-(4-isopropylthiazol-5-yl)phenyl)-1H-pyrrolo[2,3-c]pyridin-3-yl)methanone 1·formic acid] | – |
| 37 | – | 9700 | CC(C)(F)c1ncccc1-c1cc(F)ccc1-n1cc(C(=O)C2CN(C(=O)[C@H]3N[C@@H]4CC[C@H]3C4)C2)c2ccncc21 [Example 13, (1-((1R,3S,4S)-2-Azabicyclo[2.2.1]heptane-3-carbonyl)azetidin-3-yl)(1-(4-fluoro-2-(2-(2-fluoropropan-2-yl)pyridin-3-yl)phenyl)-1H-pyrrolo[2,3-c]pyridin-3-yl)methanone] | – |
| 24 | <2.2 | 10500 | CC(C)c1ncccc1-c1cc(F)ccc1-n1cc(C(=O)C2CN(C(=O)[C@H]3N[C@@H]4CC[C@H]3C4)C2)c2ccncc21 [Example 10, (1-((1R,3S,4S)-2-Azabicyclo[2.2.1]heptane-3-carbonyl)azetidin-3-yl)(1-(4-fluoro-2-(2-isopropylpyridin-3-yl)phenyl)-1H-pyrrolo[2,3-c]pyridin-3-yl)methanone] | – |
| 207 | – | 300 | C[C@@H]1CCC[C@H](C)N1C(=O)c1cc(F)ccc1-n1cc(C(=O)C2CCN(C(=O)[C@H]3N[C@@H]4CC[C@H]3C4)CC2)c2ccncc21 [Example 33, (1-((1R,3S,4S)-2-Azabicyclo[2.2.1]heptane-3-carbonyl)piperidin-4-yl)(1-(2-((2R,6S)-2,6-dimethylpiperidine-1-carbonyl)-4-fluorophenyl)-1H-pyrrolo[2,3-c]pyridin-3-yl)methanone] | – |
| 37 | 1.9 | 30700 | Cc1c(C(=O)C2CCN(C(=O)[C@H]3NC[C@@H]4C[C@@H]43)CC2)c2ccncc2n1-c1ccc(F)cc1C(=O)N(CC(F)(F)F)C(C)C (single isomer, unassigned) [Example 51-2] | – |
| 103 | 2.9 | 13600 | CC(C)N(C(=O)c1cc(F)ccc1-n1cc(C(=O)C2CN(C(=O)[C@H]3N[C@@H]4CC[C@H]3C4)C2)c2ccnc(F)c21)C(C)C [Example 15, 2-(3-(1-((1R,3S,4S)-2-Azabicyclo[2.2.1]heptane-3-carbonyl)azetidine-3-carbonyl)-7-fluoro-1H-pyrrolo[2,3-c]pyridin-1-yl)-5-fluoro-N,N-diisopropylbenzamide] | – |
| 37 | 3.6 | 1900 | CC(C)N(C(=O)c1cc(F)ccc1-n1cc(C(=O)C2CCN(C(=O)[C@H]3NC[C@@H]4CC[C@@H]43)CC2)c2ccncc21)C(C)C (relative stereo) [Example 25, rel-2-(3-(1-((1R,2R,5S)-3-Azabicyclo[3.2.0]heptane-2-carbonyl)piperidine-4-carbonyl)-1H-pyrrolo[2,3-c]pyridin-1-yl)-5-fluoro-N,N-diisopropylbenzamide] | – |
| 193 | – | 8000 | CCN(C(=O)c1cc(F)ccc1-n1cc(C(=O)C2CN(C(=O)[C@H]3N[C@@H]4CC[C@H]3C4)C2)c2ccncc21)C(C)C [Example 8, 2-(3-(1-((1R,3S,4S)-2-Azabicyclo[2.2.1]heptane-3-carbonyl)azetidine-3-carbonyl)-1H-pyrrolo[2,3-c]pyridin-1-yl)-N-ethyl-5-fluoro-N-isopropylbenzamide] | – |
| 223 | 2.3 | – | CC(C)N(C(=O)c1cc(F)ccc1-n1cc(C(=O)[C@@H]2CCN(C[C@H]3CC[C@H](NS(C)(=O)=O)CC3)C2)c2ccncc21)C(C)C [Example 4, 5-Fluoro-N,N-diisopropyl-2-(3-((R)-1-(((1r,4R)-4-(methylsulfonamido)-cyclohexyl)methyl)pyrrolidine-3-carbonyl)-1H-pyrrolo[2,3-c]pyridin-1-yl)benzamide] | – |
| 225 | 3.8 | – | CCN(C(=O)c1cc(F)ccc1-n1cc(C(=O)C2CN(C(=O)[C@H]3NC4CCC3CC4)C2)c2ccncc21)C(C)C [Example 9, (S)-2-(3-(1-(2-Azabicyclo[2.2.2]octane-3-carbonyl)azetidine-3-carbonyl)-1H-pyrrolo[2,3-c]pyridin-1-yl)-N-ethyl-5-fluoro-N-isopropylbenzamide] | – |
| 117 | – | 2800 | CC(C)N(C(=O)c1cc(F)ccc1-n1cc(C(=O)C2CCN(C(=O)[C@H]3N[C@@H]4CC[C@H]3C4)CC2)c2c(F)cncc21)C(C)C.O=CO [Example 44, 2-(3-(1-((1R,3S,4S)-2-Azabicyclo[2.2.1]heptane-3-carbonyl)piperidine-4-carbonyl)-4-fluoro-1H-pyrrolo[2,3-c]pyridin-1-yl)-5-fluoro-N,N-diisopropylbenzamide 1·formic acid] | – |

| Compound | IC50 (OCI-AML3 cells; Homo sapiens, OCI-AML-3, 168 h) [nM] | HH CLint [1] [μl/min/1E6] | Ki (muscarinic M2 receptor) [nM] | IC50 (OCI-AML3 cells) [nM] |
| --- | --- | --- | --- | --- |
| Cc1c(C(=O)C2CCN(C(=O)[C@@H]3CCC(C)(C)N3)CC2)c2ccncc2n1-c1ccc(F)cc1C(=O)N(C(C)C)C(C)C (single isomer, unassigned) [Compound 56-2] | 47 | 3.4 | > 100000 | – |
| CC(C)N(C(=O)c1cc(F)ccc1-n1cc(C(=O)C2CCN(C(=O)[C@@H]3CCC4(CC4)N3)CC2)c2ccncc21)C(C)C [Example 24, (S)-2-(3-(1-(4-Azaspiro[2.4]heptane-5-carbonyl)piperidine-4-carbonyl)-1H-pyrrolo[2,3-c]pyridin-1-yl)-5-fluoro-N,N-diisopropylbenzamide] | 21 | 4.1 | 1200 | – |
| CCN(C(=O)c1cc(F)ccc1-n1c(C)c(C(=O)C2CCN(C(=O)[C@@H]3CCC4(CC4)N3)CC2)c2ccncc21)C(C)C (single isomer, unassigned) [Example 49-2] | > 233 | 6.0 | 27400 | – |
| CCN(C(=O)c1cc(F)ccc1-n1c(C)c(C(=O)[C@@H]2CCN(C(=O)[C@@H]3CCC4(CC4)N3)[C@@H](C)C2)c2ccncc21)C(C)C (single isomer, unassigned) [Example 52-2, N-Ethyl-5-fluoro-N-isopropyl-2-(2-methyl-3-((2R*,4S*)-2-methyl-1-((S)-4-azaspiro[2.4]heptane-5-carbonyl)piperidine-4-carbonyl)-1H-pyrrolo[2,3-c]pyridin-1-yl)benzamide] | – | 3.5 | – | 82 |
